Assay results published in patent US20080275058A1, “N-Substituted-1H-Quinoline-2,4-Diones, Preparation Method Thereof, And Pharmaceutical Composition Containing The Same” (KOREA RESEARCH INSTITUTE OF CHEMICAL TECHNOLOGY, priority 2005, published 2008).
Where two headings read alike, the source gives them in different places.

Experiments:
[1] = molecular target: T1, Human serotonin 5-HT6 receptor (Homo sapiens, UniProt P50406); assay: [3H]LSD binding assay on cloned 5-HT6 receptor membranes; conditions: for binding affinity at 5-HT6 receptor labeled by [3H]LSD, in words: comment on Table 2
T1 construct: made in house; host or cells: insect Sf21 cells (baculovirus vector BacPAK8)

5-HT7 = molecular target: T2, 5-HT7 (Homo sapiens, UniProt P34969); assay: Radioligand binding, 5-HT7 ([3H]LSD); conditions: Table 4; [3H]LSD 3 nM; read-out: Binding affinity, IC50 (nM) 5-HT7
T2 construct: purchased Euroscreen/BioSignal Packard Inc

5-HT1a = molecular target: T3, 5-HT1a (Homo sapiens, UniProt P08908); assay: Radioligand binding, 5-HT1a ([3H]8-OH-DPAT); conditions: Table 4; [3H]8-OH-DPAT 0.5 nM; read-out: Binding affinity, IC50 (nM) 5-HT1a
T3 construct: purchased Euroscreen/BioSignal Packard Inc
T3 sequence (P08908 1-422): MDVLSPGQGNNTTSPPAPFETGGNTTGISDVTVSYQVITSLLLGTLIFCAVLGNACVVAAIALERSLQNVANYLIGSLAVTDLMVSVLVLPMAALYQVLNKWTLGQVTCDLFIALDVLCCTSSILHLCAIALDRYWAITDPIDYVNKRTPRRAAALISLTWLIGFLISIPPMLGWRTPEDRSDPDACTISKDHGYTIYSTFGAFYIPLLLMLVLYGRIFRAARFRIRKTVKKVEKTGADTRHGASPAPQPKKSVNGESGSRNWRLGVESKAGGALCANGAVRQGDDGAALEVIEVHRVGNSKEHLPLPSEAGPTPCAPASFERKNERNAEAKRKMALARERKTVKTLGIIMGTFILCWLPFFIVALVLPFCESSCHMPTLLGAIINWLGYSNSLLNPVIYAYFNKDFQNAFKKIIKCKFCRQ
In short: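 Binding was measured on commercial receptor membrane preparations, following the membrane supplier's own test protocol.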

5-HT2a = molecular target: T4, 5-HT2a (Homo sapiens, UniProt P28223); assay: Radioligand binding, 5-HT2a ([3H]Ketanserin); conditions: Table 4; [3H]Ketanserin 1 nM; read-out: Binding affinity, IC50 (nM) 5-HT2a
T4 construct: purchased Euroscreen/BioSignal Packard Inc

5-HT2c = molecular target: T5, 5-HT2c (Homo sapiens, UniProt P28335); assay: Radioligand binding, 5-HT2c ([3H]Mesulergine); conditions: Table 4; [3H]Mesulergine 1 nM; read-out: Binding affinity, IC50 (nM) 5-HT2c
T5 construct: purchased Euroscreen/BioSignal Packard Inc
T5 sequence (P28335 33-458): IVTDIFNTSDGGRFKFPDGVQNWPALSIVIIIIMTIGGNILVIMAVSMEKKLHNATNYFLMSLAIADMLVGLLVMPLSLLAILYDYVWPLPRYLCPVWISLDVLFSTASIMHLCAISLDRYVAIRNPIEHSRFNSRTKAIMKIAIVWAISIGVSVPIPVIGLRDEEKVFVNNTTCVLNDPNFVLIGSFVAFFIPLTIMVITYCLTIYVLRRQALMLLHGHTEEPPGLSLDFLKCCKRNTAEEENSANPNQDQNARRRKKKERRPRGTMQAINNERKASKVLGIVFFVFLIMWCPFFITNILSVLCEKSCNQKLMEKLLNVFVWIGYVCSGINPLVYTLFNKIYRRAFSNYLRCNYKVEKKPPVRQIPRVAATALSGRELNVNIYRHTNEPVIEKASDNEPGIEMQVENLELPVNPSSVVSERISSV

D1 = D1 (Homo sapiens, UniProt P21728); assay: Radioligand binding, dopamine D1; conditions: Table 4; read-out: Binding affinity, IC50 (nM) D1
hD4.2 receptor = molecular target: T6, hD4.2 receptor (Homo sapiens, UniProt P21917, DEL265-296); assay: Radioligand binding, dopamine D4 ([3H]YM-09151-2); conditions: Table 4; [3H]YM-09151-2 0.06 nM; read-out: Binding affinity, IC50 (nM) D4
T6 construct: purchased BioSignal Packard Inc., Montreal, Canada
T6 sequence (P21917 with tags, fused parts or gaps DEL265-296): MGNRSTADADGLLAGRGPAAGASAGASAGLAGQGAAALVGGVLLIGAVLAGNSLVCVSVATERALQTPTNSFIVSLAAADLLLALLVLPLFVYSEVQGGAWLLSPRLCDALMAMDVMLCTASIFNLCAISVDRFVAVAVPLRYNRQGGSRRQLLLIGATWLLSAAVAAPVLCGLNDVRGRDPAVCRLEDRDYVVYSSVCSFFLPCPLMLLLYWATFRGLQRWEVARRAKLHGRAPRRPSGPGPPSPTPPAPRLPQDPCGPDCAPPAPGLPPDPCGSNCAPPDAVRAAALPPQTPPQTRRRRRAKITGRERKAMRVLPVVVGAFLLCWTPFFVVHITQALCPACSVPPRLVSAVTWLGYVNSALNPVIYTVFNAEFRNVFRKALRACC
In short: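 Membrane competition binding with [3H]spiperone (1 nM) for hD2L and hD3, or [3H]YM-09151-2 (0.06 nM) for hD4.2, each in receptor-specific Tris-HCl pH 7.4 buffer containing Mg2+/EDTA (D3 and D4 also with K+, Ca2+; D3 with 120 mM NaCl). Compounds were tested at 7-8 concentrations in duplicate, and IC50 was derived by nonlinear regression across three assays.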

Rotarod deficit in mice = type: in vivo, mouse; conditions: mouse, in vivo, po, unit printed as image, read-out: TD50 (median neurotoxic dose)
In short: (§1)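 Compounds suspended in 3% Tween 80 were given p.o. to mice 60 min before testing. Rotarod deficit (%) was the proportion of animals falling within 1 min from a 1 inch knurled rod turning at 6 rpm, scored at 60, 90 and 120 min after dosing.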

mice = assay: Rotarod deficit in mice; type: in vivo, mouse
In short: as §1

[2] = Table 2, 1.87 nM [3H]LSD, 37 C, 60 min, read-out: IC50 (nM), binding affinity to the 5-HT6 receptor
[3] = Table 4, read-out: Binding affinity, IC50 (nM) 5-HT6

T1 sequence (P50406 whole entry): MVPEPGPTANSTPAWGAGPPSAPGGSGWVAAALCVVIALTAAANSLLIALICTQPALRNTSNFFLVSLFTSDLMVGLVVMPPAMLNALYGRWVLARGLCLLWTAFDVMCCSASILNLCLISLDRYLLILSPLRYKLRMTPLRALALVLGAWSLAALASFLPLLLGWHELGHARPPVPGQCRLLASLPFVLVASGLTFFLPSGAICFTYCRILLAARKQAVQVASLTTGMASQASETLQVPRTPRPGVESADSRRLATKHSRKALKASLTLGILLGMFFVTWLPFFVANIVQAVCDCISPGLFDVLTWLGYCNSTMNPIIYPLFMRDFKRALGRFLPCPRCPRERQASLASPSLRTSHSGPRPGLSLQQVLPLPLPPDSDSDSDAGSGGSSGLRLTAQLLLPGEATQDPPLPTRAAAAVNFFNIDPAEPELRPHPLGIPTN
T4 sequence (P28223 whole entry): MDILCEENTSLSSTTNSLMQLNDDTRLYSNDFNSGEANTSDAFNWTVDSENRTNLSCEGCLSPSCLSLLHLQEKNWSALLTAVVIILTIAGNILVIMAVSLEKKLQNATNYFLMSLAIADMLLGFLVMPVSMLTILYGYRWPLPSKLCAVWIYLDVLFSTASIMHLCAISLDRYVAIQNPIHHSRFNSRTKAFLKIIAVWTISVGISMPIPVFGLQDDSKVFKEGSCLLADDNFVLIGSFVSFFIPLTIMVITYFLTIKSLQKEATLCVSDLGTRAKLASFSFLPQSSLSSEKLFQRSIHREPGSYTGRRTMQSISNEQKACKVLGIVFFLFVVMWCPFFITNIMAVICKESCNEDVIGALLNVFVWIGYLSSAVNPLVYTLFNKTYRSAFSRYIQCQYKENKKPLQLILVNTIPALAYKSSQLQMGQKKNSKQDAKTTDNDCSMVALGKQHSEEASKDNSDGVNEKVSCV
T2 sequence (P34969 whole entry): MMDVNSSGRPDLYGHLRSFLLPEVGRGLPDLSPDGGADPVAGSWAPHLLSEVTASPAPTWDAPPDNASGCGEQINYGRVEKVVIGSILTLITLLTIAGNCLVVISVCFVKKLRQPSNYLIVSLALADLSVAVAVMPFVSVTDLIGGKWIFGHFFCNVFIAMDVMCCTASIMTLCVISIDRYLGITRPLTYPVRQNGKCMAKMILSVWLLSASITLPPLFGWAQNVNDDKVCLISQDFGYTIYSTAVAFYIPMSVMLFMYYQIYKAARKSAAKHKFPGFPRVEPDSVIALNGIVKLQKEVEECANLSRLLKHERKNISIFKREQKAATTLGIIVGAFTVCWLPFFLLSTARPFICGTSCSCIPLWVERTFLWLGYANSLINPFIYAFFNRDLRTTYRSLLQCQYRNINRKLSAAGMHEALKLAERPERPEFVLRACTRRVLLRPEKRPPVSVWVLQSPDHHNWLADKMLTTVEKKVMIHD
D1, sequence (P21728 whole entry): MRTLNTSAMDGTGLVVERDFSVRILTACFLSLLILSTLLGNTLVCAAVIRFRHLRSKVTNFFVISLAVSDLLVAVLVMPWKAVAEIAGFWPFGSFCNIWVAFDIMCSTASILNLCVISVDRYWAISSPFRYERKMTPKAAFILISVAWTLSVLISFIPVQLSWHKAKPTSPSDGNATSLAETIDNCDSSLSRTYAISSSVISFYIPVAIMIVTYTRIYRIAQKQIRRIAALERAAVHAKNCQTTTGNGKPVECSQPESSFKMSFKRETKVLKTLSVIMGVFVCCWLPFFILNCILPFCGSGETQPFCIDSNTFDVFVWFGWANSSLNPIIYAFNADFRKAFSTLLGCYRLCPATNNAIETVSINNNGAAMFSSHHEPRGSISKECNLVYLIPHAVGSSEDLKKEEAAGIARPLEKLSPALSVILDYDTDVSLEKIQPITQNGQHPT

Structure (SMILES)	IC50 [1, 2]	IC50 [1, 3]	binding affinity at 5-HT6 receptor labeled by [3H]LSD, in words [1]	IC50 (5-HT7)	IC50 (5-HT1a)	IC50 (5-HT2a)	IC50 (5-HT2c)	IC50 (D1)	IC50 (hD4.2 receptor)	TD50 at 120 min (Rotarod deficit in mice)	Rotarod deficit (%) (mice; 200 p.o. (dose unit not given))	Rotarod deficit (%) (mice; 300 p.o. (dose unit not given))	Rotarod deficit (%) (mice; 400 p.o. (dose unit not given))	melting point
CC1(c2ccc(O)cc2)C(=O)c2c(N3CCNCC3)cc(Cl)cc2N(Cc2ccccc2)C1=O (racemic) [Example 14, 1-Benzyl-7-chloro-3-(4-hydroxy-phenyl)-3-methyl-5-piperazin-1-yl-1H-quinoline-2,4-dione]	1 nM	1 nM	significant affinities	3570 nM	> 10000 nM	2140 nM	> 10000 nM	6820 nM	> 10000 nM	> 400 mg/kg	0%	0%	0%	197 to 200 °C
COc1ccc(C2(C)C(=O)c3c(N4CCNCC4)cc(Cl)cc3N(Cc3ccccc3)C2=O)cc1 (racemic) [Example 13, 1-Benzyl-7-chloro-3-(4-methoxy-phenyl)-3-methyl-5-piperazin-1-yl-1H-quinoline-2,4-dione]	0.9 nM	0.9 nM	significant affinities	9000 nM	1360 nM	543 nM	437 nM	3590 nM	> 10000 nM	> 400 mg/kg	0%	0%	0%	120 to 123 °C
